Earlier results as cited in patent US20250230478A1, “COMBINATION OF NUCLEIC ACID SEQUENCES ENCODING PROTEINS DERIVED FROM HELICHRYSUM UMBRACULIGERUM, AND ANY […], TISSUE, AND ORGANISM COMPRISING SAME” (YEDA RESEARCH AND DEVELOPMENT CO. LTD., priority 2022, published 2025).

Experiments:
5-HT1A receptor = biological target: T1, 5-HT1A receptor (Homo sapiens, UniProt P08908)
T1 sequence (P08908 1-422): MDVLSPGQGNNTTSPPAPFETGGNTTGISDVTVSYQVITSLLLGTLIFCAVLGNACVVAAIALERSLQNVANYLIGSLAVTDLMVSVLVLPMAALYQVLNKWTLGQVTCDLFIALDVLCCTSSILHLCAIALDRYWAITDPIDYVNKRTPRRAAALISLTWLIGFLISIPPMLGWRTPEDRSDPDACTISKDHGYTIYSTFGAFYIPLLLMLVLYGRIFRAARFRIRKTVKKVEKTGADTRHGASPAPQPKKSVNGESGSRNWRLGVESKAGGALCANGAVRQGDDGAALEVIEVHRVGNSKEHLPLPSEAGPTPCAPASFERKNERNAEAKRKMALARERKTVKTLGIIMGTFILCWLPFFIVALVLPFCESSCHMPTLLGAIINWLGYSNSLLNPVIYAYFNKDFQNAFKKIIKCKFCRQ

CB1 receptor = CB1 receptor (Homo sapiens, UniProt P21554)
CB1 receptor, sequence (P21554 whole entry): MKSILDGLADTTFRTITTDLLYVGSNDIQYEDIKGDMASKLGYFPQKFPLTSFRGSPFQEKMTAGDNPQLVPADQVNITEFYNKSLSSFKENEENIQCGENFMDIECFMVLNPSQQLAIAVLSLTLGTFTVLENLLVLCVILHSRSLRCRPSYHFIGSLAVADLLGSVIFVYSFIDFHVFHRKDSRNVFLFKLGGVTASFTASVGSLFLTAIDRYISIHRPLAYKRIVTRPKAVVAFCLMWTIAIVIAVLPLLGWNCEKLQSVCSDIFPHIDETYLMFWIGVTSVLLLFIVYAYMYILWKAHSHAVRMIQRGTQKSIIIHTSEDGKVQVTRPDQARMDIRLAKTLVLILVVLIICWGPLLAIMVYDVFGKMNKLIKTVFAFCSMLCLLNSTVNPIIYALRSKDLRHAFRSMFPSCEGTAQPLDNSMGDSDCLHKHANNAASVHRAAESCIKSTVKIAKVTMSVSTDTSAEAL

CCCCCc1cc(O)c(C/C=C(\C)CCC=C(C)C)c(O)c1 [CBG, cannabigerol]
affinity as α2-adrenergic receptor agonist (α2-adrenergic receptor): high affinity
affinity as 5-HT1A receptor antagonist (5-HT1A receptor): moderate affinity
affinity as CB1 receptor antagonist (CB1 receptor): low affinity
